Results published in US20200338045A1, “ISOINDOLINE COMPOSITIONS AND METHODS FOR TREATING NEURODEGENERATIVE DISEASE” (priority 2017, published 2020).
Read-outs that look alike come from different tables or passages of the source. Marks after values point to notes of the source that are not given here.

Assays:
[1] = Phase 1 multiple ascending dose (MAD) plasma pharmacokinetics; type: in vivo, human; details: for Cmax / AUC(0-t) / Tmax / half-life: human, plasma, oral; for AUC(0-t): read-out: AUC0-24h (mean)
Method: (§1) In Part B, healthy young subjects in each cohort received the same dose once daily for 14 days after overnight fasting. Cohort dosing started at 280 mg, followed by 560 mg and 840 mg in subsequent cohorts. In each cohort, eight subjects received drug and two received placebo. A fourth cohort of healthy elderly subjects (≥65 years old) received a 560 mg dose vs. placebo daily for 14 days (seven active, two placebo).
In Part A, blood draws for assessment of PK parameters occurred pre-dose and at 15, 30, 45, 60, and 90 minutes post dose as well as at 2, 3, 4, 8, 12, 24, 36, and 48 hours post dose. […] In Part B, blood samples for plasma PK analysis were taken on Day 1 at pre-dose and at 2 hours post-dose, on Day 3 at pre-dose and at 15, 30 and 45 minutes and 1, 2, 3, 4, 8, 12 and 24 hours post-dose, on Days 4, 6, 8 and 10 at pre-dose and at 1.5 hours post-dose and following the final dose on Day 14 at pre-dose and 15, 30 and 45 minutes and 1, 2, 4, 8, 12, 24, 36 and 48 hours post-dose.
This was assessed by analysis of variance (ANOVA) of log-transformed Cmax, AUC0-24, AUC0-48, and/or AUC0-inf, using a model with factors for treatment (fed status or age [young vs. elderly] status) and subject within sequence. Treatment mean differences and 90% confidence intervals of the log transformed PK parameters were back-transformed, to present the geometric least squares means ratios and 90% confidence limits.

[2] = Phase 1 MAD safety (adverse events, laboratory, ECG); type: in vivo, human
Method: as §1
Subjects were dosed in the morning with 240 mL of water after an 8-hour fast, and remained in a semi-reclined position for 1 hour and fasting for 2 hours post-administration, except for the fed cohort in Part A. Subjects in each MAD cohort were confined to the clinical facility from check-in on Day 0 until the pharmacokinetic sample was collected on Day 16, 48 hours after administration of the last dose on Day 14. Subjects returned to the clinical facility for follow-up visits on Days 24 and 35.
Safety variables, including incidence of adverse events (AEs), vital signs, clinical laboratory findings, 12-lead electrocardiographs (ECGs), physical examination, and affective and cognitive measures (Part B only), were summarized for all subjects who received study drug.

[3] = 560 mg daily, Day 14 (steady state)
[4] = 560 mg daily, day 3, geometric least-squares mean
[5] = 280 mg, 280 mg QD, Day 3, age up to 64 years (n = 8)
[6] = 280 mg, 280 mg QD, Day 14, age up to 64 years (n = 8)
[7] = 560 mg, 560 mg QD, Day 3, age at least 65 years (n = 7)
[8] = 560 mg, 560 mg QD, Day 3, age up to 64 years (n = 8)
[9] = 560 mg, 560 mg QD, Day 14, age at least 65 years (n = 7)
[10] = 560 mg, 560 mg QD, Day 14, age up to 64 years (n = 8)
[11] = 840 mg, 840 mg QD, Day 3, age up to 64 years (n = 7)
[12] = 840 mg, 840 mg QD, Day 14, age up to 64 years (n = 7)
[13] = MAD, 280 mg, Age ≤64 yrs (n = 8)
[14] = MAD, 560 mg, Age ≤64 yrs (n = 8)

For `CC(C)(C)Oc1cc(CCC(C)(C)N2Cc3ccc(S(C)(=O)=O)cc3C2)ccc1O` [CT1812], the CLss/F (mean) ([1]; 280 mg QD, Day 14, age up to 64 years (n = 8), unit assumed) was 387 L/h, the “CLss/F (mean)” value ([1]; 560 mg QD, Day 14, age at least 65 years, n = 7) was 169^‡‡ and the CLss/F (mean) ([1]; 560 mg QD, Day 14, age up to 64 years (n = 8), unit assumed) was 296 L/h. For the same compound, the “AUC0-24h, aged cohort vs younger subjects” value [1, 3] was 1.5 times, the “Cmax, aged cohort vs younger subjects” value [1, 3] was 1.6 times and the “AUC0-24h, aged cohort vs subjects under 64 years” value [1, 4] was roughly 1.34 times. The “Cmax, aged cohort vs subjects under 64 years” value [1, 4] was “approximately 1.7 times”, the “CLss/F (mean)” value ([1]; 840 mg QD, Day 14, age up to 64 years, n = 7) was 212^‡‡ and the “Cmax and AUC / plasma concentration vs dose” value ([1]; MAD 280 to 840 mg) was “slightly greater than dose proportionally”. The “accumulation with repeat dosing” value ([1]; Q.D. over 14 days) was “minimal accumulation”, the Cmax [1, 5] was 0.238 µg/mL and the AUC(0-t) [1, 5] was 0.851 µg·h/mL. For the same compound, the Tmax ([1]; 280 mg, 280 mg QD, Day 3, age up to 64 years (n = 8), read-out: Tmax (median)) was 1.5 h, the half-life ([1]; 280 mg, 280 mg QD, Day 3, age up to 64 years, n = 6, over max 24 hours post dose, read-out: t1/2 (mean) (converted)) was 8.97 h and the Cmax [1, 6] was 0.431 µg/mL. For the same compound, the AUC(0-t) [1, 6] was 1.06 µg·h/mL, the Tmax ([1]; 280 mg, 280 mg QD, Day 14, age up to 64 years (n = 8), read-out: Tmax (median)) was 0.88 h and the half-life ([1]; 280 mg, 280 mg QD, Day 14, age up to 64 years (n = 8), read-out: t1/2 (mean) (converted)) was 12 h. The Cmax [1, 7] was 0.567 µg/mL, the AUC(0-t) [1, 7] was 3.33 µg·h/mL and the Tmax ([1]; 560 mg, 560 mg QD, Day 3, age at least 65 years (n = 7), read-out: Tmax (median)) was 2 h. It also gave a half-life ([1]; 560 mg, 560 mg QD, Day 3, age at least 65 years, n = 4, over max 24 hours post dose, read-out: t1/2 (mean) (converted)) of 8.83 h, a Cmax [1, 8] of 0.407 µg/mL and an AUC(0-t) [1, 8] of 1.94 µg·h/mL. For the same compound, the Tmax ([1]; 560 mg, 560 mg QD, Day 3, age up to 64 years (n = 8), read-out: Tmax (median)) was 2 h, the half-life ([1]; 560 mg, 560 mg QD, Day 3, age up to 64 years, n = 2, over max 24 hours post dose, read-out: t1/2 (mean) (converted)) was 8.56 h and the Cmax [1, 9] was 0.853 µg/mL. The AUC(0-t) [1, 9] was 4.45 µg·h/mL, the Tmax ([1]; 560 mg, 560 mg QD, Day 14, age at least 65 years (n = 7), read-out: Tmax (median)) was 1 h and the half-life ([1]; 560 mg, 560 mg QD, Day 14, age at least 65 years (n = 7), read-out: t1/2 (mean) (converted)) was 12.8 h. For the same compound, the Cmax [1, 10] was 0.651 µg/mL, the AUC(0-t) [1, 10] was 2.81 µg·h/mL and the Tmax ([1]; 560 mg, 560 mg QD, Day 14, age up to 64 years (n = 8), read-out: Tmax (median)) was 2 h. For the same compound, the half-life ([1]; 560 mg, 560 mg QD, Day 14, age up to 64 years (n = 8), read-out: t1/2 (mean) (converted)) was 12.3 h, the Cmax [1, 11] was 0.813 µg/mL and the AUC(0-t) [1, 11] was 3.61 µg·h/mL. The Tmax ([1]; 840 mg, 840 mg QD, Day 3, age up to 64 years (n = 7), read-out: Tmax (median)) was 2 h, the half-life ([1]; 840 mg, 840 mg QD, Day 3, age up to 64 years, n = 5, over max 24 hours post dose, read-out: t1/2 (mean) (converted)) was 9.39 h and the Cmax [1, 12] was 0.991 µg/mL. The AUC(0-t) [1, 12] was 4.99 µg·h/mL, the Tmax ([1]; 840 mg, 840 mg QD, Day 14, age up to 64 years (n = 7), read-out: Tmax (median)) was 2 h and the half-life ([1]; 840 mg, 840 mg QD, Day 14, age up to 64 years, n = 6, read-out: t1/2 (mean) (converted)) was 8.93 h. It also gave a half-life ([1]; MAD, read-out: average terminal half-life at steady state (converted)) of roughly 12 h, a Tmax ([1]; part B (MAD), 280-840 mg, read-out: Tmax in plasma, range over doses) of 0.88 to 2 h and a vomiting incidence ([2]; 840 mg dose, two instances) of 25%. For the same compound, the “serious AE (SAE)” value ([2]; 840 mg, respiratory picornavirus infection deemed unrelated to study treatment) was “One serious AE”, the “tolerability, multiple dose” value ([2]; 280 to 840 mg QD 14 days (young), 560 mg (elderly)) was “safe and well tolerated” and the “ECG parameters or changes” value ([2]; MAD) was “No ECG parameters or changes were assessed as clinically significant”. For the same compound, the “Number of Subjects with at least one Treatment-Emergent AE: All TEAEs” value [2, 13] was 7, the “Number of Subjects with at least one Treatment-Emergent AE: Dizziness” value [2, 13] was 1 and the “Number of Subjects with at least one Treatment-Emergent AE: Dyspepsia” value [2, 13] was 1. The “Number of Subjects with at least one Treatment-Emergent AE: Headache” value [2, 13] was 2, the “Number of Subjects with at least one Treatment-Emergent AE: Nausea” value [2, 13] was 1 and the “Number of Subjects with at least one Treatment-Emergent AE: Upper respiratory tract infection” value [2, 13] was 5. For the same compound, the “Subjects (%) with at least one Treatment-Emergent AE: All TEAEs” value [2, 13] was “(88%)”, the “Subjects (%) with at least one Treatment-Emergent AE: Dizziness” value [2, 13] was “(13%)” and the “Subjects (%) with at least one Treatment-Emergent AE: Dyspepsia” value [2, 13] was “(13%)”. The “Subjects (%) with at least one Treatment-Emergent AE: Headache” value [2, 13] was “(25%)”, the “Subjects (%) with at least one Treatment-Emergent AE: Nausea” value [2, 13] was “(13%)” and the “Subjects (%) with at least one Treatment-Emergent AE: Upper respiratory tract infection” value [2, 13] was “(63%)”. For the same compound, the “Number of Subjects with at least one Treatment-Emergent AE: All TEAEs” value [2, 14] was 7 and the “Number of Subjects with at least one Treatment-Emergent AE: Catheter site phlebitis” value [2, 14] was 1.
